Test results as given in ChEMBL document CHEMBL3259766, “Design, synthesis and biological evaluation of benzylisoquinoline derivatives as multifunctional agents against Alzheimer's disease” (Bioorg Med Chem Lett, 2014).

Tests used:
[1] = molecular target: Acetylcholinesterase (Homo sapiens, UniProt P22303); assay: Inhibition of AChE in human erythrocytes using acetylthiocholine iodide as substrate preincubated with enzyme for 20 mins followed by substrate addition by Ellman's method; format: cell-based
Sequence of Acetylcholinesterase (Homo sapiens, UniProt P22303) (P22303 whole entry): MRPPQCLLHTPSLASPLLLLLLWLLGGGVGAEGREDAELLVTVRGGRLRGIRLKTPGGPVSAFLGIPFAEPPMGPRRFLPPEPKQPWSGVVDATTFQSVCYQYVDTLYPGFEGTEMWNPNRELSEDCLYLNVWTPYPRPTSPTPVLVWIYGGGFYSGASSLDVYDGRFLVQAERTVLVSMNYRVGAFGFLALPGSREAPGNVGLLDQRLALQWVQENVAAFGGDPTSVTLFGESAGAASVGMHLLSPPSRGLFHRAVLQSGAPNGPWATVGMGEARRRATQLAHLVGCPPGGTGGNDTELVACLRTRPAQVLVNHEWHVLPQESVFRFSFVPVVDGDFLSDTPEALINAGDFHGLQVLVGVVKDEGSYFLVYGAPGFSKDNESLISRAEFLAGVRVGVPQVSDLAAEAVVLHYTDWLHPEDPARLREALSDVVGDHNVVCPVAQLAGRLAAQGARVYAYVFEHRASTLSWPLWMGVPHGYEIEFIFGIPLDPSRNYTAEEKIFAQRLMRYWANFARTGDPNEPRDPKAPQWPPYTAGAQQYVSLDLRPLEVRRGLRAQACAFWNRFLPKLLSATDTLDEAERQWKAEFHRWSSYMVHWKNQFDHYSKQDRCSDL

[2] = molecular target: Cholinesterase (Homo sapiens, UniProt P06276); assay: Inhibition of BuChE in human serum using S-butyrylthiocholine iodide as substrate preincubated with enzyme for 20 mins followed by substrate addition by Ellman's method
Sequence of Cholinesterase (Homo sapiens, UniProt P06276) (P06276 whole entry): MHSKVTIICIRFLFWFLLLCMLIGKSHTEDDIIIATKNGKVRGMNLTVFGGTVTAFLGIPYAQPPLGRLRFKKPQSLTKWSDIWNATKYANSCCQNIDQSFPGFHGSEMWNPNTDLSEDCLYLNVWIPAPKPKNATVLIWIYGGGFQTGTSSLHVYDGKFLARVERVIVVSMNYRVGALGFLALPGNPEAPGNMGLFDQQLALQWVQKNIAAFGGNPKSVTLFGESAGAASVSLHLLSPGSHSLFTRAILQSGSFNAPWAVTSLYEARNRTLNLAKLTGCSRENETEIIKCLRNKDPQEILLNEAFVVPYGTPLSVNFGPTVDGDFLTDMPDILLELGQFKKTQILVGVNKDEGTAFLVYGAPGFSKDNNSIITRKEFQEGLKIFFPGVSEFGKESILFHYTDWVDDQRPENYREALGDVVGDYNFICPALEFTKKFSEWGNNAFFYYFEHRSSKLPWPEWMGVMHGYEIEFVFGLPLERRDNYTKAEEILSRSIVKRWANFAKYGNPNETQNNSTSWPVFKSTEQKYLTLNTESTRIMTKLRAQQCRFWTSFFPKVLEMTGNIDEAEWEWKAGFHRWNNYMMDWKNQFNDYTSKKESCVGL

[3] = organism: Homo sapiens; assay: Selectivity index, ratio of IC50 for BuChE in human serum to IC50 for AChE in human erythorcytes; format: cell-based
[4] = molecular target: Amyloid-beta precursor protein (Homo sapiens) (UniProt P05067); assay: Inhibition of amyloid beta (1 to 42) (unknown origin) self-aggregation at 20 uM after 46 to 48 hrs by thioflavin T based fluorometric assay
Sequence of Amyloid-beta precursor protein (Homo sapiens) (P05067 whole entry): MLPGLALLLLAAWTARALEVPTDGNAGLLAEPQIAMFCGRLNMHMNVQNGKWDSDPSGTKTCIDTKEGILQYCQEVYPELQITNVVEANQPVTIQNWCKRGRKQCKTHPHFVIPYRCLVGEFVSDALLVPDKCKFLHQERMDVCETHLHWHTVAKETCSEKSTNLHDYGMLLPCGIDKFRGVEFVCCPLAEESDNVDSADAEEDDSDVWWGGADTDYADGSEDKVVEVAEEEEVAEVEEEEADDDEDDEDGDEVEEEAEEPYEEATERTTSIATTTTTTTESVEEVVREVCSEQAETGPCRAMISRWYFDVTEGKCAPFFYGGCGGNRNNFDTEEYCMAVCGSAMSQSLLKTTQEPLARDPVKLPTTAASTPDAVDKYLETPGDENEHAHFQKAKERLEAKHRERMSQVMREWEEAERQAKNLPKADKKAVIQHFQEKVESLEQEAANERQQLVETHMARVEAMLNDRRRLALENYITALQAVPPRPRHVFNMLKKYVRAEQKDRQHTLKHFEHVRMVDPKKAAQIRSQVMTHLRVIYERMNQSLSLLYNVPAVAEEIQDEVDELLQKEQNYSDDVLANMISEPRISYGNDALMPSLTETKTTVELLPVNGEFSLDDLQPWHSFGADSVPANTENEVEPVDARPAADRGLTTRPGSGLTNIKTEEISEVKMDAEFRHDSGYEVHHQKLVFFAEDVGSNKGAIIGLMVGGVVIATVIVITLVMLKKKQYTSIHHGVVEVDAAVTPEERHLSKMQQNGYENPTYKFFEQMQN

[5] = Selectivity index, ratio of IC50 for BuChE in equine serum to IC50 for electric eel AChE
[6] = molecular target: Cholinesterase (Equus caballus, UniProt P81908); assay: Inhibition of BuChE in equine serum using S-butyrylthiocholine iodide as substrate preincubated with enzyme for 6 mins followed by substrate addition by Ellman's method
Sequence of Cholinesterase (Equus caballus, UniProt P81908) (P81908 whole entry): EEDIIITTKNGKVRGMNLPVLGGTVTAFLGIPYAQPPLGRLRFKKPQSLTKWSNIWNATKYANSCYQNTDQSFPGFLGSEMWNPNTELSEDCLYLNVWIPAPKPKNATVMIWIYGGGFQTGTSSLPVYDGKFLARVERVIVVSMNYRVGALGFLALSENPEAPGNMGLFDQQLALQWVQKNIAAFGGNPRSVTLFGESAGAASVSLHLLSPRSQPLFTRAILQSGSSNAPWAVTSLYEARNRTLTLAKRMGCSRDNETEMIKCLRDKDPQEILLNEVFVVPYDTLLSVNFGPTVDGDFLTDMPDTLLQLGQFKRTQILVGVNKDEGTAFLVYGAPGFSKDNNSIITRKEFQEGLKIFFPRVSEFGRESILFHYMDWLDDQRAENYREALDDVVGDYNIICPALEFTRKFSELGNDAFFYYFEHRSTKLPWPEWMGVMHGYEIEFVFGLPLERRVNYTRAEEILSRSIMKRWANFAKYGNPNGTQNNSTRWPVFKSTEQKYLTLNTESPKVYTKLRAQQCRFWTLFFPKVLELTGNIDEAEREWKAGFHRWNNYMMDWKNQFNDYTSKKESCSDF

[7] = molecular target: Acetylcholinesterase (Electrophorus electricus, UniProt O42275); assay: Inhibition of electric eel AChE using acetylthiocholine iodide as substrate preincubated with enzyme for 6 mins followed by substrate addition by Ellman's method
Sequence of Acetylcholinesterase (Electrophorus electricus, UniProt O42275) (O42275 whole entry): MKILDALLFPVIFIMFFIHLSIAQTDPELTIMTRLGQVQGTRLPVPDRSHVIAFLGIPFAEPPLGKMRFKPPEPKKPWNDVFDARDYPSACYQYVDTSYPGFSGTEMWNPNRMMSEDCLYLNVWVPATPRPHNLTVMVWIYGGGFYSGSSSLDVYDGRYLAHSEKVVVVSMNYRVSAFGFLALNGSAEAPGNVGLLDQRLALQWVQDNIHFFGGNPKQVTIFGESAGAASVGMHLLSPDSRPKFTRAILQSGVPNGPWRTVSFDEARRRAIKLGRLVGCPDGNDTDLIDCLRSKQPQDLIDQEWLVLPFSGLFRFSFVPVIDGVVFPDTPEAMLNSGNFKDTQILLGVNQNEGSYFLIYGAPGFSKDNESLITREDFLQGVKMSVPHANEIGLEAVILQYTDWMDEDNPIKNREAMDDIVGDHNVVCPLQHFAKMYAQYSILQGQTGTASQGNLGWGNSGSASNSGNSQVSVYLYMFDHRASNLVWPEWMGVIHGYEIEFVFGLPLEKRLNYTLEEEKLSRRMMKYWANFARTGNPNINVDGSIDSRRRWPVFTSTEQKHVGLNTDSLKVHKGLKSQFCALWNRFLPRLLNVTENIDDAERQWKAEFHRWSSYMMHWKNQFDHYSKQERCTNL

[8] = Cytotoxicity against human SH-SY5Y cells assessed as cell viability at 1 uM after 24 hrs by MTT assay; format: cell-based; settings: read-out: Activity
[9] = Cytotoxicity against human SH-SY5Y cells assessed as cell viability at 0.5 uM after 24 hrs by MTT assay; format: cell-based; settings: read-out: Activity
[10] = Cytotoxicity against human SH-SY5Y cells assessed as cell viability at 2 uM after 24 hrs by MTT assay; format: cell-based; settings: read-out: Activity
[11] = Cytotoxicity against human SH-SY5Y cells assessed as cell viability at 5 uM after 24 hrs by MTT assay; format: cell-based; settings: read-out: Activity
[12] = Cytotoxicity against human SH-SY5Y cells assessed as cell viability at 0.1 uM after 24 hrs by MTT assay; format: cell-based; settings: read-out: Activity
[13] = Cytotoxicity against human SH-SY5Y cells assessed as cell viability at 10 uM after 24 hrs by MTT assay; format: cell-based; settings: read-out: Activity

## COc1cc2c(cc1OC)C(Cc1ccc(OCCCCCCN3CCOCC3)cc1)NCC2 (configuration not stated)
[1]
  IC50: 35.5 µM
[2]
  IC50: 10.6 µM
[3]
  Ratio IC50: 0.29
[4]
  inhibition: 57.4%
[5]
  Ratio IC50: 0.45
[6]
  IC50: 13 µM
[7]
  IC50: 28.6 µM

## COc1cc2c(cc1OC)C(Cc1ccc(OCCCCCCN3CCCC3)cc1)NCC2 (configuration not stated)
[1]
  IC50: 2.98 µM
[2]
  IC50: 2.27 µM
[3]
  Ratio IC50: 0.76
[4]
  inhibition: 69%
[5]
  Ratio IC50: 2.05
[6]
  IC50: 2.34 µM
[7]
  IC50: 1.28 µM

## COc1cc2c(cc1OC)C(Cc1ccc(OCCCCCCN3CCCC3C)cc1)NCC2 (configuration not stated)
[1]
  IC50: 4.5 µM
[2]
  IC50: 6.42 µM
[3]
  Ratio IC50: 1.43
[4]
  inhibition: 72.3%
[5]
  Ratio IC50: 2.5
[6]
  IC50: 3.35 µM
[7]
  IC50: 1.34 µM

## COc1cc2c(cc1OC)C(Cc1ccc(OCCCCCCN3CCC(c4ccccc4)CC3)cc1)NCC2 (configuration not stated)
[1]
  IC50: 9.33 µM
[2]
  IC50: 9.29 µM
[4]
  inhibition: 61.2%
[5]
  Ratio IC50: 1.19
[6]
  IC50: 7.99 µM
[7]
  IC50: 6.69 µM

## CCN(CC)CCCCCCCOc1ccc(CC2NCCc3cc(OC)c(OC)cc32)cc1 (configuration not stated)
[4]
  inhibition: 43.9%
[5]
  Ratio IC50: 1.96
[6]
  IC50: 9.13 µM
[7]
  IC50: 4.67 µM

## CCCCN(CCCC)CCCCCCOc1ccc(CC2NCCc3cc(OC)c(OC)cc32)cc1 (configuration not stated)
[1]
  IC50: 3.85 µM
[2]
  IC50: 6.02 µM
[3]
  Ratio IC50: 1.56
[4]
  inhibition: 51.4%
[5]
  Ratio IC50: 1.01
[6]
  IC50: 3.46 µM
[7]
  IC50: 3.43 µM

## CCN(CC)CCCCOc1ccc(CC2NCCc3cc(OC)c(OC)cc32)cc1 (configuration not stated)
[4]
  inhibition: 47.3%
[5]
  Ratio IC50: 2.02
[6]
  IC50: 15.3 µM
[7]
  IC50: 7.58 µM

## CCN(CC)CCCCCCCCOc1ccc(CC2NCCc3cc(OC)c(OC)cc32)cc1 (configuration not stated)
[4]
  inhibition: 39.6%
[5]
  Ratio IC50: 3.17
[6]
  IC50: 20.1 µM
[7]
  IC50: 6.33 µM

## COc1cc2c(cc1OC)C(Cc1ccc(OCCCCCCN3CCN(Cc4ccccc4)CC3)cc1)NCC2 (configuration not stated)
[1]
  IC50: 5.59 µM
[2]
  IC50: 21.7 µM
[3]
  Ratio IC50: 3.88
[4]
  inhibition: 61.4%
[5]
  Ratio IC50: 0.2
[6]
  IC50: 10.5 µM
[7]
  IC50: 53.5 µM

## COc1cc2c(cc1OC)C(Cc1ccc(OCCCCCCN3CCC(O)(Cc4ccccc4)CC3)cc1)NCC2 (configuration not stated)
[1]
  IC50: 39.6 µM
[2]
  IC50: 15.9 µM
[3]
  Ratio IC50: 0.4
[4]
  inhibition: 62.7%
[5]
  Ratio IC50: 0.31
[6]
  IC50: 12.8 µM
[7]
  IC50: 41.7 µM

## CCN(CC)CCCOc1ccc(CC2NCCc3cc(OC)c(OC)cc32)cc1 (configuration not stated)
[4]
  inhibition: 41.1%
[5]
  Ratio IC50: 1.57
[6]
  IC50: 20.8 µM
[7]
  IC50: 13.2 µM

## COc1cc2c(cc1OC)C(Cc1ccc(OCCCCCCN3CCCCC3C)cc1)NCC2 (configuration not stated)
[1]
  IC50: 2.2 µM
[8]
  viability at 24 h, 1 µM: 96.8%
[9]
  viability at 24 h, 0.5 µM: 98.8%
[2]
  IC50: 5.83 µM
[10]
  viability at 24 h, 2 µM: 96.1%
[11]
  viability at 24 h, 5 µM: 94.5%
[3]
  Ratio IC50: 1.49
[4]
  inhibition: 78.4%
[5]
  Ratio IC50: 3.29
[6]
  IC50: 3.13 µM
[12]
  viability at 24 h, 0.1 µM: 96.8%
[7]
  IC50: 0.95 µM
[13]
  viability at 24 h, 10 µM: 91.1%

## COc1cc2c(cc1OC)C(Cc1ccc(OCCCCCCN3CCCCC3)cc1)NCC2 (configuration not stated)
[1]
  IC50: 2.14 µM
[2]
  IC50: 3.25 µM
[3]
  Ratio IC50: 1.69
[4]
  inhibition: 76.4%
[5]
  Ratio IC50: 1.96
[6]
  IC50: 2.51 µM
[7]
  IC50: 1.14 µM

## CCN(CC)CCCCCCOc1ccc(CC2NCCc3cc(OC)c(OC)cc32)cc1 (configuration not stated)
[1]
  IC50: 4.99 µM
[2]
  IC50: 16.7 µM
[3]
  Ratio IC50: 3.35
[4]
  inhibition: 56.4%
[5]
  Ratio IC50: 2.17
[6]
  IC50: 4.95 µM
[7]
  IC50: 2.28 µM

## COc1cc2c(cc1OC)C(Cc1ccc(O)cc1)NCC2 (configuration not stated)
[1]
  IC50: > 100 µM
[2]
  IC50: 46.8 µM
[4]
  inhibition: 36%
[6]
  IC50: 39.7 µM
[7]
  IC50: > 100 µM

## COc1cc2c(cc1OC)C(Cc1ccc(OCCCCCCN3CCC(O)CC3)cc1)NCC2 (configuration not stated)
[1]
  IC50: 9.59 µM
[2]
  IC50: 23.7 µM
[3]
  Ratio IC50: 2.47
[4]
  inhibition: 62.1%
[5]
  Ratio IC50: 1.07
[6]
  IC50: 14.2 µM
[7]
  IC50: 13.3 µM

## CCCN(CCC)CCCCCCOc1ccc(CC2NCCc3cc(OC)c(OC)cc32)cc1 (configuration not stated)
[1]
  IC50: 3.46 µM
[2]
  IC50: 11.2 µM
[3]
  Ratio IC50: 3.23
[4]
  inhibition: 51.2%
[5]
  Ratio IC50: 1.44
[6]
  IC50: 4.32 µM
[7]
  IC50: 3.01 µM

## CCN(CC)CCCCCOc1ccc(CC2NCCc3cc(OC)c(OC)cc32)cc1 (configuration not stated)
[4]
  inhibition: 34.3%
[5]
  Ratio IC50: 1.46
[6]
  IC50: 10.3 µM
[7]
  IC50: 7.02 µM

## COc1cc2c(cc1OC)C(Cc1ccc(OCCCCCCN3CCN(c4ccccc4)CC3)cc1)NCC2 (configuration not stated)
[1]
  IC50: 16.3 µM
[2]
  IC50: 12.9 µM
[4]
  inhibition: 65.8%
[5]
  Ratio IC50: 0.51
[6]
  IC50: 8.78 µM
[7]
  IC50: 17.1 µM

## COc1cc2c(cc1OC)C(Cc1ccc(OCCCCCCN(C)C)cc1)NCC2 (configuration not stated)
[1]
  IC50: 7.13 µM
[2]
  IC50: 3.43 µM
[3]
  Ratio IC50: 0.48
[4]
  inhibition: 55.3%
[5]
  Ratio IC50: 2.75
[6]
  IC50: 8.65 µM
[7]
  IC50: 3.14 µM
